The record followed here is publication PMC2832019, “In Vitro Metabolic and Mitogenic Signaling of Insulin Glargine and Its Metabolites” (PLoS ONE, 2010).

The term EC50 denotes the concentration needed to bring the measured effect to its halfway point.

Read-outs that look alike come from different tables or passages of the source.

The subject of assay [1] is human IGF1R. Description: IGF1R autophosphorylation (In-Cell Western). Format: cell-based. The following applies: for EC50: MEF cells overexpressing IGF1R, 15 min at 37°C, In-Cell Western, means ± SEM, at least three times, read-out: IGF1R auto-phosphorylation EC50; for more potent in stimulation of IGF1R autophosphorylation: relative to human insulin. An excerpt: (§1) CHO cells expressing either the IR-A or the IR-B isoform were used for IR autophosphorylation assays using In-Cell Western. For the analysis of IGF1R autophosphorylation the receptor was overexpressed in a mouse embryo fibroblast 3T3 Tet off cell line (BD Bioscience, Heidelberg, Germany) that was stably transfected with IGF1R tetracycline-regulatable expression plasmid resulting in the expression of ∼2.6×10^5 IGF1R per cell (as determined by FACS analysis, unpublished data). In order to determine the receptor tyrosine phosphorylation level, cells were seeded into 96-well plates and grown for 48 h. Cells were serum starved with serum-free medium αMEM (PAN Biotech GmbH, Aidenbach, Germany) for 3–4 h. […] After incubation the medium was discarded and the cells were fixed in 3.75% freshly prepared para-formaldehyde for 20 min. Cells were permeabilized with 0.1% Triton-X-100 in PBS for 20 min. Blocking was performed with Odyssey blocking buffer (LI-COR, Bad Homburg, Germany) overnight at 4°C. Anti-pTyr 4G10 (Millipore, Schwalbach, Germany) was incubated for 2 h at room temperature. After incubation of the primary antibody, cells were washed with PBS+0.1% Tween20. The secondary anti-mouse-IgG-800-CW antibody (Rockland, Gilbertsville, PA, USA) was incubated for 1 h. Results were normalized by the quantification of DNA with TO-PRO3 dye (Invitrogen, Karlsruhe, Germany). Data were obtained as relative units (RU) and are presented as fold over basal.
(§2) For each experiment, IC50 or EC50 values were obtained using the 4-parameter logistic model according to Ratkowsky and Reedy (1986). The adjustment was obtained by non-linear regression using the Levenberg-Marquardt algorithm in SAS v9.1.3 software via Biost@t-Speed V2.0-LTS internal application. If necessary, lower and upper asymptotes were set to 0 and 100, respectively.
(§3) Figure 4 Activity of insulin analogs on the human IGF1R and mitogenic potential in Saos-2 cells. Analysis of binding to the human IGF1R using [^125I]IGF-1 as radioactive ligand (A) and analysis of the insulin-stimulated autophosphorylation of the human IGF1R overexpressed in MEF cells (B) were done as described in figure 2 and Materials and Methods. Data are given as means ± SEM. […] Confluent cells were starved for 4 h and then incubated for 19 h with increasing concentrations of IGF-1, insulin or analog in serum free medium. [^14C]thymidine was added for further 6 h and the radioactivity measured in a Wallac Micro Scintillation counter. Data are given as means ± SEM from octuplicate sample.

The subject of assay [2] is human IR-B. The assay is described as follows: IR-B autophosphorylation (In-Cell Western). The format is cell-based. The following applies: for EC50: CHO cells overexpressing IR-B, 15 min at 37°C, In-Cell Western, means ± SEM, at least three times, read-out: IR-B auto-phosphorylation EC50.
Source text: as §1, §2
The binding of a constant concentration of [^125I]insulin to plasma membranes from CHO cells overexpressing either IR-A or IR-B was measured in presence of increasing concentrations of unlabeled competing ligand after incubation at room temperature for 12 h. All data has been corrected for non-specific binding and are expressed as percentage of [^125I]insulin in absence of competing ligand. To analyze the insulin-stimulated activation and subsequent autophosphorylation of the insulin receptor CHO cells overexpressing the human IR-A (C) or IR-B (D) were stimulated for 15 min at 37°C with increasing concentrations of peptides, then the cells were fixed with 3.7% PFA and the amount of phosphotyrosines was analyzed via In-Cell Western. The data represent mean values ± SEM of at least 3 individual experiments measured in quadruplicate.
Insulin receptor autophosphorylation was studied using CHO cells overexpressing either IR-A or IR-B. For detection an immunocytochemical microplate assay (In-Cell Western) based on two-colour fluorescence was applied.

Assay [3] deals with Saos-2 cells. Description: Mitogenic potency: thymidine incorporation in Saos-2 cells. Format: cell-based, human. The conditions noted are these: for EC50: [2-^14C]-thymidine incorporation, 19 h stimulation plus 6 h thymidine, serum-free, 37°C, octuplicate samples, means ± SEM, at least three times; for mitogenicity in words: relative to glargine and human insulin. The protocol: The human osteosarcoma cell line Saos-2 was obtained in frozen aliquots from the European Collection of Cell Cultures (ECACC, Salesbury, UK). Cells were grown in McCoy's 5a medium (Gibco, Grand Island, NY, USA) supplemented with 10% fetal calf serum (PAN Biotech GmbH, Aidenbach, Germany) and 2 mM (final) L-glutamine (Sigma Aldrich, Irvine, UK). Subconfluent cultures (9-15×10^6 cells per 225 cm^2 flask) were used to determine the mitogenic activity of the test compounds.
For measuring thymidine incorporation 40,000 cells were seeded per well of a 96-well Cytostar-T scintillation microplate (GE Healthcare, Amersham, UK) and the plates were incubated overnight at 37°C in a humidified atmosphere containing 5% CO2. The serum-containing medium was removed and replaced by 200 µL serum-free McCoy's 5a medium supplemented with 0.5% (w/v) BSA (Gibco, Grand Island, NY, USA), 2 mM L-glutamine and antibiotics (penicillin 100 units, streptomycin 100 units, amphotericin B 0.25 µg/mL final, Gibco, Grand Island, NY, USA). The plates were incubated for 4 hours at 37°C in a humidified atmosphere containing 5% CO2. 150 µL of the medium were removed and substituted by 150 µL of serum-free medium containing the different insulins or IGF-1 (Cell Sciences, Canton, MA, USA) at the indicated concentrations and the plates were incubated at 37°C in a humidified atmosphere containing 5% CO2. After 19 hours 10 µL of [2-^14C]-thymidine solution ([…], 3.7 MBq/mL) diluted in serum-free McCoy's 5a medium were added per well to yield a final concentration of 500 nCi/mL and the plates were incubated for 6 hours at 37°C in a humidified atmosphere containing 5% CO2. ^14C-thymidine incorporation was measured in a Wallac 1450 Micro Beta Trilux Scintillation counter. Dose-response curves were obtained by testing ten different concentrations of the ligands with every concentration tested by octuplicate samples.
as §2, §3
A general note: Dividing cells build labelled thymidine or BrdU into new DNA.

Take “Human insulin: human insulin produced by recombinant DNA techniques or enzymatic semisynthesis”: the EC50 in assay [1] came to 447 ± 38.7 nM; in assay [2], 11.7 ± 1.4 nM; in assay [3] it was 12.2 ± 0.27 nM.

As to “IGF-1: IGF-1 obtained from R&D Systems and Cell Sciences”, the values for the half-maximal effective concentration (EC50) in assay [1], in assay [2] and in assay [3] were 2.9 ± 0.4 nM, above 1000 nM and 0.22 ± 0.05 nM, respectively.

With [Asp^B10]insulin, in assay [1], the 50% effective concentration (EC50) is 72.7 ± 7.6 nM, the “less potent relative to IGF-1 (IGF1R autophosphorylation)” value is recorded as around 25 times and the “more potent in stimulation of IGF1R autophosphorylation” value (“more potent in stimulation” for short) is listed as “about 5 fold”. Besides, the EC50 in assay [2] was 3.32 ± 0.78 nM. Also, in assay [3], the half-maximal effective concentration (EC50) was 1.52 ± 0.15 nM.

Turning to “[Gly^A21,Arg^B31,Arg^B32]insulin [Glargine]”, the EC50 is 87.5 ± 10 nM in assay [1], 23.6 ± 2.1 nM in assay [2] and 1.61 ± 0.26 nM in assay [3]. Also, the “less potent relative to IGF-1 (IGF1R autophosphorylation)” value in assay [1] is given as around 30 times. The “more potent in stimulation” value in assay [1] is recorded as “about 5 fold”. In addition, the “decrease in IR-B autophosphorylation activity” value in assay [2] (relative to human insulin) was 30–50%.

For [Gly^A21,Arg^B31]insulin [Glargine IM], in assay [1], the concentration for a half-maximal effect (EC50) is 179 ± 19.6 nM and the “more potent in stimulation” value came out at 2 fold. The EC50 in assay [2] was 20.9 ± 1.3 nM. Further, in assay [3], the 50% effective concentration (EC50) is 3.75 ± 0.31 nM and the mitogenicity in words result was “reduced relative to insulin glargine”.

Consider “[Gly^A21,des-Thr^B30]insulin [Glargine M2]”, for which the concentration giving a half-maximal response (EC50) is above 400 nM in assay [1] (listed as M2), 485 ± 43.6 nM in assay [1], 21.4 ± 2.3 nM in assay [2] and 17.9 ± 6.5 nM in assay [3]. Also, the mitogenicity in words entry in assay [3] is “significantly less mitogenic than glargine and comparable to normal insulin”.

Turning to [Gly^A21]insulin [Glargine M1], the EC50 in assay [1] (listed as M1) is above 400 nM; in assay [1], 644 ± 56.9 nM; in assay [2], 18.1 ± 1.7 nM; in assay [3], 16.2 ± 2.35 nM. For the same substance, the mitogenicity in words result in assay [3] is “significantly less mitogenic than glargine and comparable to normal insulin”.
